Assays:
[1] = target: G-protein coupled receptor 84 (Homo sapiens, UniProt Q9NQS5); test: Antagonist activity at human GPR84 expressed in HEK293 cells co-expressing Galpha16 assessed as reduction in 6-OAU induced intracellular calcium response preincubated for 10 mins followed by agonist addition and measured after 1 min by calcium mobilization assay; type: functional, cell-based
[2] = AUC(0 to infinity) in CD-1 mouse at 2 mg/kg, iv administered as single dose measured upto 24 hrs by LC-MS/MS analysis; type: ADME, organism-based; design: time < 24 hrs, dose 2 mg/kg, route iv; conditions: in vivo
[3] = MRT in CD-1 mouse at 2 mg/kg, iv administered as single dose measured upto 24 hrs by LC-MS/MS analysis; type: ADME, organism-based; conditions: in vivo
[4] = Oral bioavailability in CD-1 mouse at 5 mg/kg administered as single dose measured upto 24 hrs by LC-MS/MS analysis; type: ADME, organism-based; conditions: in vivo
[5] = Clearance in CD-1 mouse at 2 mg/kg, iv administered as single dose measured upto 24 hrs by LC-MS/MS analysis; type: ADME, organism-based; conditions: in vivo
[6] = Cmax in CD-1 mouse at 5 mg/kg, po administered as single dose measured upto 24 hrs by LC-MS/MS analysis; type: ADME, organism-based; design: time < 24 hrs, dose 5 mg/kg, route po; conditions: in vivo
[7] = Half life in CD-1 mouse at 5 mg/kg, po administered as single dose measured upto 24 hrs by LC-MS/MS analysis; type: ADME, organism-based; conditions: in vivo
[8] = target: G-protein coupled receptor 84 (Mus musculus, UniProt Q8CIM5); test: Antagonist activity at mouse GPR84 expressed in HEK293 cells assessed as reduction in 6-OAU induced intracellular calcium response preincubated for 10 mins followed by agonist addition and measured after 1 min by calcium mobilization assay; type: functional, cell-based
[9] = Volume of distribution at steady state in CD-1 mouse at 2 mg/kg, iv administered as single dose measured upto 24 hrs by LC-MS/MS analysis; type: ADME, organism-based; conditions: in vivo, read-out: Vdss
[10] = MRT in CD-1 mouse at 5 mg/kg, po administered as single dose measured upto 24 hrs by LC-MS/MS analysis; type: ADME, organism-based; conditions: in vivo
[11] = AUC(0 to infinity) in CD-1 mouse at 5 mg/kg, po administered as single dose measured upto 24 hrs by LC-MS/MS analysis; type: ADME, organism-based; design: time < 24 hrs, dose 5 mg/kg, route po; conditions: in vivo
[12] = Tmax in CD-1 mouse at 5 mg/kg, po administered as single dose measured upto 24 hrs by LC-MS/MS analysis; type: ADME, organism-based; conditions: in vivo
[13] = Half life in CD-1 mouse at 2 mg/kg, iv administered as single dose measured upto 24 hrs by LC-MS/MS analysis; type: ADME, organism-based; conditions: in vivo
[14] = test system: Mus musculus; test: Anti-colitis activity against DSS-induced ulcerative colitis mouse model assessed as attenuation of rectal bleeding administered orally once daily for 7 consecutive days; type: functional, organism-based; conditions: dose 25-100 mg/kg, route po, DDE = dose-dependent effect
[15] = test system: Bone marrow cell; test: Cytotoxicity against bone marrow cells (unknown origin) assessed as inhibition of cell growth upto 10 uM measured after 1.5 to 2 hrs by ATPlite assay; type: toxicity, cell-based; conditions: time 1.5-2 hrs
[16] = Mutagenecity in Salmonella typhimurium TA98 in absence of S9 fraction at 1000 ug by Ames test; type: toxicity, Salmonella enterica subsp. enterica serovar Typhimurium; conditions: in vivo; dose 1000 µg
[17] = target: G-protein coupled receptor 84 (Mus musculus) (UniProt Q8CIM5); test: Antagonist activity at GPR84 expressed in mouse bone marrow cells assessed as reduction in 3-OH-C12 induced migration in neutrophils incubated for 90 mins by flow cytometry; type: functional, cell-based; conditions: Bone marrow cell, filed as antagonist, dose 0.01-1 µM, DDE = dose-dependent effect
[18] = test system: Mus musculus; test: Anti-colitis activity against DSS-induced ulcerative colitis mouse model assessed as attenuation of weight loss administered orally once daily for 7 consecutive days; type: functional, organism-based; conditions: dose 25-100 mg/kg, route po, DDE = dose-dependent effect
[19] = Mutagenecity in Salmonella typhimurium TA98 in presence of S9 fraction at 1000 ug by Ames test; type: toxicity, subcellular, Salmonella enterica subsp. enterica serovar Typhimurium; conditions: dose 1000 µg
[20] = Drug distribution in C57 mouse liver at 3 mg/kg, iv administered as single dose measured upto 8 hrs by LC-MS/MS analysis; type: ADME, organism-based; conditions: in vivo
[21] = Drug distribution in DSS-induced ulcerative colitis mouse jejunum at 5 mg/kg, po administered as single dose measured upto 8 hrs by LC-MS/MS analysis; type: ADME, organism-based; conditions: in vivo
[22] = Drug distribution in C57 mouse duodenum at 5 mg/kg, po administered as single dose measured upto 8 hrs by LC-MS/MS analysis; type: ADME, organism-based; conditions: in vivo
[23] = Drug distribution in C57 mouse ileum at 5 mg/kg, po administered as single dose measured upto 8 hrs by LC-MS/MS analysis; type: ADME, organism-based; conditions: in vivo
[24] = Mutagenecity in Salmonella typhimurium TA100 in presence of S9 fraction at 1000 ug by Ames test; type: toxicity, subcellular, Salmonella enterica subsp. enterica serovar Typhimurium; conditions: dose 1000 µg
[25] = Mutagenecity in Salmonella typhimurium TA100 in absence of S9 fraction at 1000 ug by Ames test; type: toxicity, Salmonella enterica subsp. enterica serovar Typhimurium; conditions: in vivo; dose 1000 µg
[26] = target: G-protein coupled receptor 84 (Mus musculus) (UniProt Q8CIM5); test: Antagonist activity at GPR84 expressed in mouse bone marrow cells assessed as reduction in 6-OAU induced migration in neutrophils incubated for 90 mins by flow cytometry; type: functional, cell-based; conditions: Bone marrow cell, filed as antagonist, dose 0.01-1 µM, DDE = dose-dependent effect
[27] = Drug distribution in C57 mouse colon at 5 mg/kg, po administered as single dose measured upto 8 hrs by LC-MS/MS analysis; type: ADME, organism-based; conditions: in vivo
[28] = target: G-protein coupled receptor 84 (Mus musculus) (UniProt Q8CIM5); test: Antagonist activity at GPR84 expressed in mouse bone marrow cells assessed as reduction in 3-OH-C12 induced migration in monocytes incubated for 90 mins by flow cytometry; type: functional, cell-based; conditions: Bone marrow cell, filed as antagonist, dose 0.01-1 µM, DDE = dose-dependent effect
[29] = target: G-protein coupled receptor 84 (Mus musculus) (UniProt Q8CIM5); test: Antagonist activity at GPR84 expressed in mouse bone marrow cells assessed as reduction in 6-OAU/3-OH-C12 induced migration in monocytes incubated for 90 mins by flow cytometry; type: functional, cell-based; conditions: Bone marrow cell, filed as antagonist, dose 0.01-1 µM, DDE = dose-dependent effect
[30] = test system: HEK293; test: Cytotoxicity against HEK293 cells assessed as inhibition of cell growth upto 100 uM measured after 24 hrs by ATPlite assay; type: toxicity, cell-based; conditions: human, hek293, 24 h
[31] = test system: Mus musculus; test: Anti-colitis activity against DSS-induced ulcerative colitis mouse model assessed as attenuation of stool thinning administered orally once daily for 7 consecutive days; type: functional, organism-based; conditions: dose 25-100 mg/kg, route po, DDE = dose-dependent effect
[32] = Drug distribution in DSS-induced ulcerative colitis mouse colon at 5 mg/kg, po administered as single dose measured upto 8 hrs by LC-MS/MS analysis; type: ADME, organism-based; conditions: in vivo
[33] = test system: Mus musculus; test: Anti-colitis activity against DSS-induced ulcerative colitis mouse model assessed as reduction in DAI score administered orally once daily for 7 consecutive days; type: functional, organism-based; conditions: dose 25-100 mg/kg, route po, DDE = dose-dependent effect
[34] = Drug distribution in C57 mouse jejunum at 5 mg/kg, po administered as single dose measured upto 8 hrs by LC-MS/MS analysis; type: ADME, organism-based; conditions: in vivo

Chain of G-protein coupled receptor 84 (Homo sapiens, UniProt Q9NQS5) (Q9NQS5 whole entry): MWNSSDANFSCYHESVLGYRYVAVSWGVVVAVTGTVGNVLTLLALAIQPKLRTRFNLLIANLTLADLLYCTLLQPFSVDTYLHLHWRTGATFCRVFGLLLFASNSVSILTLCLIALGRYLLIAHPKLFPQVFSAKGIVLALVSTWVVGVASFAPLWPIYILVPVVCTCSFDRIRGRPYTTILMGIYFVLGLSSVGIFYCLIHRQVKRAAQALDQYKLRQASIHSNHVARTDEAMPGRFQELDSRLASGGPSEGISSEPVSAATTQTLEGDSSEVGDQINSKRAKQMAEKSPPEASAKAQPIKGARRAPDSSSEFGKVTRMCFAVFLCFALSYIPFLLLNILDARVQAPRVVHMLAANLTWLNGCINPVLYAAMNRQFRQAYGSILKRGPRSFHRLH
Chain of G-protein coupled receptor 84 (Mus musculus) (Q8CIM5 whole entry): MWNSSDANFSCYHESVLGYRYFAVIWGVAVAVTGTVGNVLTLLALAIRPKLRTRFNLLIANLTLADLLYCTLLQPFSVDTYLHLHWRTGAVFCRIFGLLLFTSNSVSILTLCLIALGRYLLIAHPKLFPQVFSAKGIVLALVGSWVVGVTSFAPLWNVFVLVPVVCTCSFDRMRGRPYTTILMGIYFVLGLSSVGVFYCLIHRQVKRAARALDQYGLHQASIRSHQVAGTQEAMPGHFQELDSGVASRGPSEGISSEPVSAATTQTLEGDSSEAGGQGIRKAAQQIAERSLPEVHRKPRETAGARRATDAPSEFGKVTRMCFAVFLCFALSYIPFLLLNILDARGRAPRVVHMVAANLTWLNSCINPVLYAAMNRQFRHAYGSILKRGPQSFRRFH
Chain of G-protein coupled receptor 84 (Mus musculus, UniProt Q8CIM5) (Q8CIM5 whole entry): as above

For O=P(O)(Oc1ccccc1)Oc1ccccc1, the IC50 [1] was > 100000 nM.

With COP(=O)(OC1=Cc2ccccc2Sc2ccccc21)OC1=Cc2ccccc2Sc2ccccc21 the IC50 [1] was > 100000 nM.

O=P([O-])(OC1=Cc2ccccc2Sc2ccccc21)OC1=Cc2ccccc2Sc2ccccc21.[Na+] gave an AUC(0-inf) [2] of 1420 ng·h/mL, an MRT [3] of 0.932 h and a bioavailability [4] of 15.7%. It also gave a clearance [5] of 23.7 mL/min/kg, a Cmax [6] of 192 ng/mL and a half-life [7] of 1.62 h. The IC50 [8] was 454 nM, the Vd [9] was 1.31 L/kg and the MRT [10] was 4.05 h. The AUC(0-inf) [11] was 562 ng·h/mL, the Tmax [12] was 1.67 h and the half-life [13] was 1.14 h.

With O=P([O-])(OC1=Cc2c(Cl)cccc2Sc2ccccc21)OC1=Cc2c(Cl)cccc2Sc2ccccc21.[Na+] the Activity [14] was “Dde”, the Activity [15] was “Non-Toxic” and the Activity [16] was “Non-Toxic”. For the same compound, the Activity [17] was “Dde”, the Activity [18] was “Dde” and the Activity [19] was “Non-Toxic”. The AUC(0-inf) [2] was 1710 ng·h/mL, the Drug uptake [20] was “Active” and the Drug uptake [21] was “Active”. For the same compound, the Drug uptake [22] was “Active”, the MRT [3] was 2.26 h and the bioavailability [4] was 11.9%. The clearance [5] was 20.3 mL/min/kg, the Cmax [6] was 81.8 ng/mL and the Drug uptake [23] was “Active”. It also gave a half-life [7] of 4.39 h, an IC50 [8] of 273 nM and a Vd [9] of 2.98 L/kg. For the same compound, the MRT [10] was 7.09 h, the Activity [24] was “Non-Toxic” and the Activity [25] was “Non-Toxic”. For the same compound, the Activity [26] was “Dde”, the Drug uptake [27] was “Active” and the Activity [28] was “Dde”. The Activity [29] was “Dde”, the Activity [30] was “Non-Toxic” and the Activity [31] was “Dde”. It also gave an AUC(0-inf) [11] of 517 ng·h/mL, a Tmax [12] of 2.67 h and a half-life [13] of 5.12 h. The Drug uptake [32] was “Active”, the Activity [33] was “Dde” and the Drug uptake [34] was “Active”.

For O=P(O)(CC1=Cc2ccccc2Sc2ccccc21)CC1=Cc2ccccc2Sc2ccccc21, the IC50 [1] was 1930 nM.

COc1cccc2c1Sc1ccccc1C=C2OP(=O)([O-])OC1=Cc2ccccc2Sc2c(OC)cccc21.[Na+] showed an AUC(0-inf) [2] of 4640 ng·h/mL, an MRT [3] of 1.82 h and a bioavailability [4] of 2.3%. The clearance [5] was 7.5 mL/min/kg, the Cmax [6] was 43.6 ng/mL and the half-life [7] was 4.99 h. For the same compound, the Vd [9] was 0.8 L/kg, the MRT [10] was 7.41 h and the AUC(0-inf) [11] was 236 ng·h/mL. It also gave a Tmax [12] of 1 h and a half-life [13] of 5.59 h.

For O=P(O)(O)OC1=Cc2ccccc2Sc2ccccc21, the IC50 [1] was > 100000 nM.

Work on COc1cccc2c1Sc1cccc(F)c1C=C2OP(=O)([O-])OC1=Cc2c(F)cccc2Sc2c(OC)cccc21.[Na+] yielded an AUC(0-inf) [2] of 7760 ng·h/mL, an MRT [3] of 1.89 h and a bioavailability [4] of 0.91%. For the same compound, the clearance [5] was 4.33 mL/min/kg, the Cmax [6] was 74.3 ng/mL and the half-life [7] was 1.91 h. It also gave a Vd [9] of 0.5 L/kg, an MRT [10] of 2.21 h and an AUC(0-inf) [11] of 178 ng·h/mL. It also gave a Tmax [12] of 0.42 h and a half-life [13] of 5.75 h.

O=c1nc(OCC2COCCO2)cc2n1CCc1cc(OCc3ccccn3)ccc1-2 (stereo unspecified) showed an IC50 [1] of 716 nM.

With O=c1nc(OC[C@@H]2COCCO2)cc2n1CCc1cc(C#CC3CC3)ccc1-2 the Activity [17] was “Dde”, the Activity [26] was “Dde” and the Activity [28] was “Dde”. For the same compound, the Activity [29] was “Dde”.
